Among the data in patent publication US11130741B2 (Bioimics AB, priority 2016, dated 2021) are MIC values, retold here.

In assay [1] the test system is Staphylococcus aureus subsp. aureus (ATCC29213). In words: MIC, broth microdilution (CLSI), Staphylococcus aureus subsp. aureus ATCC29213. Format: cell-based. The note with it: ATCC29213, Table 15, read-out: S. aureus ("wound") (MIC). For orientation: Dilution methods test growth across graded concentrations, often in twofold steps.
For assay [2], the system named is Escherichia coli (ATCC25922). Put plainly: MIC, broth microdilution (CLSI), Escherichia coli ATCC25922.
The mark [3] stands for this setting: ATCC25922, read-out: E. coli MIC, Table 15, NI = No inhibition.
[4] abbreviates: ATCC25922, read-out: E. coli MIC.

Converted amounts (≈) assume the structure as drawn. Structures can show the parent of a compound that is named as a salt. Where two headings read alike, the source gives them in different places.

What is called MIC is the lowest concentration that inhibits growth of the organism. Regarding `Cl.NCCNCCCNc1cc(C(F)(F)F)cc2c1Nc1ccc(N3CCCC3)cc1S2` [compound 345, N1-(2-aminoethyl)-N3-(7-(pyrrolidin-1-yl)-3-(trifluoromethyl)-10H-phenothiazin-1-yl)propane-1,3-diamine hydrochloride], the results for the MIC in assay [1] and in assay [2] (setting [3]) were 4 mg/L and 32 mg/L, respectively.

Consider `Cl.Cl.N#Cc1ccc2c(c1)Sc1cc(C(F)(F)F)cc(NC(=O)CCNCCN)c1N2` [compound 304, 3-((2-aminoethyl)amino)-N-(7-cyano-3-(trifluoromethyl)-10H-phenothiazin-1-yl)propanamide hydrochloride], for which the MIC in assay [1] was found to be 16 mg/L; in assay [2] (setting [3]) it was 32 mg/L.

For `CC1CCCN(c2ccc3c(c2)Sc2cc(C(F)(F)F)cc(NC(=O)CCNCCN)c2N3)C1.Cl.Cl` (stereo not drawn) [compound 308, 3-((2-aminoethyl)amino)-N-(7-(3-methyl-piperidin-1-yl)-3-(trifluoromethyl)-10H-phenothiazin-1-yl)propanamide hydrochloride], the MIC in assay [1] worked out at 16 mg/L; in assay [2] (setting [3]), 64 mg/L.

On to `CCOC(=O)c1ccc2c(c1)Sc1cc(N3CCN(CCN)CC3)ccc1N2CCCN` [compound 271, ethyl 7-(4-(2-aminoethyl)piperazin-1-yl)-10-(3-aminopropyl)-10H-phenothiazine-3-carboxylate trifluoro acetic acid], for which the MIC in assay [1] was 128 mg/L (≈ 281 µM); in assay [2] (setting [4]) it was more than 128 mg/L.

Regarding `Cl.NCCN1CCC(Nc2cc(C(F)(F)F)cc3c2Nc2ccc(N4CC5CCC4C5)cc2S3)CC1` (stereo not drawn) [compound 327, N-(1-(2-aminoethyl)piperidin-4-yl)-7-(2-azabicyclo [2.2.1]heptan-2-yl)-3-(trifluoromethyl)-10H-phenothiazin-1-amine hydrochloride], the MIC in assay [1] stood at 1 mg/L; in assay [2] (setting [3]), 4 mg/L.

As for `Cl.Cl.NCCN1CCC(Nc2cc(C(F)(F)F)cc3c2Nc2ccc(N4CCC5(CCCC5)C4)cc2S3)CC1` [compound 322, N-(1-(2-aminoethyl)piperidin-4-yl)-7-(2-azaspiro [4.4]nonan-2-yl)-3-(trifluoromethyl)-10H-phenothiazin-1-amine hydrochloride], the values for the MIC in assay [1] and in assay [2] (setting [3]) were 1 mg/L and 4 mg/L, respectively.

For `Cl.NCCNCCCNc1cc(C(F)(F)F)cc2c1Nc1ccc(C3=CCCC3)cc1S2` [compound 358, N1-(2-aminoethyl)-N3-(7-(cyclopent-1-en-1-yl)-3-(trifluoromethyl)-10H-phenothiazin-1-yl) propane-1,3-diaminehydrochloride], the MIC in assay [1] and in assay [2] (setting [3]) was 16 mg/L throughout.

In the case of `NCCN1CCN(c2ccc3c(c2)Sc2cc(C(F)(F)F)cc(NC4CCNCC4)c2N3)CC1` [compound 269, 7-(4-(2-aminoethyl)piperazin-1-yl)-N-(piperidin-4-yl)-3-(trifluoromethyl)-10H-phenothiazin-1-amine hydrochloride], the minimal inhibitory concentration (MIC) in assay [1] was 16 mg/L; in assay [2] (setting [4]) it was 64 mg/L.

Turning to `Cl.Cl.NCCN1CCC(Nc2cc(C(F)(F)F)cc3c2Nc2ccc(N4CCc5ccccc54)cc2S3)CC1` [compound 310, N-(1-(2-aminoethyl)piperidin-4-yl)-7-(indolin-1-yl)-3-(trifluoromethyl)-10H-phenothiazin-1-amine hydrochloride], the figures for the MIC in assay [1] and in assay [2] (setting [3]) were 8 mg/L and 128 mg/L, respectively.

With `Cl.NCCN1CCC(Nc2cc(C(F)(F)F)cc3c2Nc2ccc(N4CCC4)cc2S3)CC1` [compound 296, N-(1-(2-aminoethyl)piperidin-4-yl)-7-(azetidin-1-yl)-3-(trifluoromethyl)-10H-phenothiazin-1-amine hydrochloride], the MIC in assay [1] came to 4 mg/L; in assay [2] (setting [3]) it was 8 mg/L.

Take `Cl.Cl.NCCN1CCC(Nc2cc(C(=O)NNc3ccccc3)cc3c2Nc2ccccc2S3)CC1` [compound 281, 1-((1-(2-aminoethyl)piperidin-4-yl)amino)-N′-phenyl-10H-phenothiazine-3-carbohydrazide hydrochloride]: the MIC came out at 32 mg/L in assay [1] and 64 mg/L in assay [2] (setting [3]).

As for `NCCNCCCNc1cc(C(F)(F)F)cc2c1Nc1ccc(C3CCCC3)cc1S2` [compound 353, N1-(2-aminoethyl)-N3-(7-cyclopentyl-3-(trifluoromethyl)-10H-phenothiazin-1-yl) propane-1,3-diamine hydrochloride], the MIC in assay [1] turned out to be 2 mg/L; in assay [2] (setting [4]), 8 mg/L.

Take `Cl.Cl.NCCN1CCC(Nc2cc(C(F)(F)F)cc3c2Nc2ccc(N4CCC(N)CC4)cc2S3)CC1` [compound 272, N-(1-(2-aminoethyl)piperidin-4-yl)-7-(4-aminopiperidin-1-yl)-3-(trifluoromethyl)-10H-phenothiazin-1-amine]: the MIC in assay [1] is 16 mg/L; in assay [2] (setting [3]), 32 mg/L.

For `Cl.NCCN1CCC(Nc2cc(C(F)(F)F)cc3c2Nc2cc(Br)ccc2S3)CC1` [compound 352, N-(1-(2-aminoethyl)piperidin-4-yl)-8-bromo-3-(trifluoromethyl)-10H-phenothiazin-1-amine hydrochloride], the MIC in assay [1] was determined as 4 mg/L; in assay [2] (setting [3]), 8 mg/L.

`Cl.Cl.NCCN1CCC(Nc2cc(C(N)=O)cc3c2Nc2ccccc2S3)CC1` [compound 287, 1-((1-(2-aminoethyl)piperidin-4-yl)amino)-10H-phenothiazine-3-carboxamide hydrochloride]: the MIC in assay [1] is 128 mg/L; in assay [2] (setting [4]) it was more than 128 mg/L.

`CN(C)c1ccc2c(c1)Sc1cc(C(F)(F)F)cc(NC3CCN(CCN)CC3)c1N2.Cl` [compound 334]: the MIC in assay [1] stood at 4 mg/L; in assay [2] (setting [3]), 16 mg/L.

In the case of `Cl.FC(F)(F)c1cc(NC2CCN(CCN3CCNCC3)CC2)c2c(c1)Sc1cc(Br)ccc1N2` [compound 319, 7-bromo-N-(1-(2-(piperazin-1-yl)ethyl)piperidin-4-yl)-3-(trifluoromethyl)-10H-phenothiazin-1-amine hydrochloride], the MIC in assay [1] and in assay [2] (setting [3]) was 8 mg/L in each case.

`COC1CCN(c2ccc3c(c2)Sc2cc(C(F)(F)F)cc(NC4CCN(CCN)CC4)c2N3)C1.Cl.Cl` (stereo not drawn) [compound 321, N-(1-(2-aminoethyl)piperidin-4-yl)-7-(3-methoxy-pyrrolidin-1-yl)-3-(trifluoromethyl)-10H-phenothiazin-1-amine hydrochloride]: the MIC in assay [1] was found to be 8 mg/L; in assay [2] (setting [3]), 32 mg/L.

Consider `NCCCN1c2ccncc2Sc2cc(-c3cc4ccccc4[nH]3)ccc21` [compound 267, 3-(8-(1H-indol-2-yl)-5H-benzo[b]pyrido[4,3-e] [1,4]thiazin-5-yl)propan-1-amine trifluoro acetic acid], for which the values for the MIC in assay [1] and in assay [2] (setting [4]) were 2 mg/L (≈ 5.37 µM) and 16 mg/L (≈ 43 µM), respectively.

Consider `Cl.NCCN1CCC(Nc2cc(C(F)(F)F)cc3c2Nc2cc(N4CCCC4)ccc2S3)CC1` [compound 356, N-(1-(2-aminoethyl)piperidin-4-yl)-8-(pyrrolidin-1-yl)-3-(trifluoromethyl)-10H-phenothiazin-1-amine hydrochloride], for which the MIC in assay [1] was 16 mg/L; in assay [2] (setting [3]) it was 32 mg/L.

Consider `CCN(C)c1ccc2c(c1)Sc1cc(C(F)(F)F)cc(NC3CCN(CCN)CC3)c1N2.Cl.Cl` [compound 339, N1-(1-(2-aminoethyl)piperidin-4-yl)-N7-ethyl-N7-methyl-3-(trifluoromethyl)-10H-phenothiazine-1,7-diamine hydrochloride], for which the results for the MIC in assay [1] and in assay [2] (setting [3]) were 4 mg/L and 8 mg/L, respectively.
